Test system: DOHH2 cells
Experiment: Cell proliferation assay (MTS) in DOHH2 cells, mechanism-based assay for BTK inhibition
Settings: Homo sapiens, DOHH-2, 120 h incubation, 5000 cells/well
Text: Cell Proliferation Assays
MTS testing kit was purchased from Promega. The DMEM, Fetal bovine serum and Penicillin-Streptomycin were purchased from Gibco. Dimethyl sulfoxide (DMSO) was purchased from Sigma.
To investigate whether a compound is able to inhibit the activity of BTK in cells, a mechanism-based assay using DOHH2 (DSMZ catalog#: ACC47) and Mino (ATCC® Number CRL-3000™) cells was developed. In this assay, inhibition of BTK was detected by the inhibition of DOHH2 and Mino cell proliferations. DOHH2 or Mino cells were cultured in culture flasks to 40-80% confluence in RPMI-1640 plus 10% fetal bovine serum. C ells were collected and plated onto 96-well plates at desired cell density (DOHH2: 5000 cells/well; Mino: 10000 cells/well). Plates were incubated overnight at 37° C., with 5% CO2 to adhere. Compounds were added to the plates, and the final compound concentrations were 10000, 3333, 1111, […], 41, 14, 4.6 and 1.5 nM. Plates were placed at 37° C., with 5% CO2 for 120 h (DOHH2) or 72 h (Mino). 20 μl MTS/100 μl medium mixture solution were added to each well and the plates were incubated for exactly 2 hours. The reaction was stopped by adding 25 μl 10% SDS per well.
Select compounds prepared as described above were assayed according to the biological procedures described herein.

| SMILES | IC50 |
| --- | --- |
| C=CC(=O)N1CC[C@H](c2nn(-c3ccc(Oc4ccccc4F)cc3)c3c(N)n[nH]c(=O)c23)C1 [Example 47, (S)-3-(1-acryloylpyrrolidin-3-yl)-7-amino-1-(4-(2-fluorophenoxy)phenyl)-1,5-dihydro-4H-pyrazolo[3,4-d]pyridazin-4-one] | 60 nM |
| C=CC(=O)N1CCC[C@H](c2cn(-c3ccc(Oc4cccc(F)c4F)cc3)c3c(N)n[nH]c(=O)c23)C1 [Example 38, (R)-3-(1-acryloylpiperidin-3-yl)-7-amino-1-(4-(2,3-difluorophenoxy)phenyl)-1,5-dihydro-4H-pyrrolo[2,3-d]pyridazin-4-one] | 175 nM |
| CC#CC(=O)N1CC[C@H](c2cn(-c3ccc(Oc4c(F)cccc4F)cc3)c3c(N)n[nH]c(=O)c23)C1 [Example 84, (R)-7-amino-3-(1-(but-2-ynoyl)pyrrolidin-3-yl)-1-(4-(2,6-difluorophenoxy)phenyl)-1,5-dihydro-4H-pyrrolo[2,3-d]pyridazin-4-one] | 369 nM |
| C=CC(=O)N1CC[C@@H](c2cn(-c3ccc(Oc4c(F)cccc4F)cc3)c3c(N)n[nH]c(=O)c23)C1 [Example 21] | 100 nM |
| C=CC(=O)N1CCC[C@@H](c2nn(-c3ccc(Oc4c(F)cccc4F)cc3)c3c(N)n[nH]c(=O)c23)C1 [Example 57, (R)-3-(1-acryloylpiperidin-3-yl)-7-amino-1-(4-(2,6-difluorophenoxy)phenyl)-1,5-dihydro-4H-pyrazolo[3,4-d]pyridazin-4-one] | 76 nM |
| COC/C=C/C(=O)N1CC[C@@H](c2cn(-c3ccc(Oc4ccccc4F)cc3)c3c(N)n[nH]c(=O)c23)C1 [Example 92, (S,E)-amino-1-(4-(2-fluorophenoxy)phenyl)-3-(1-(4-methoxybut-2-enoyl)pyrrolidin-3-yl)-1,5-dihydro-4H-pyrrolo[2,3-d]pyridazin-4-one] | 649 nM |
| C=CC(=O)N1CC[C@@H](c2cn(-c3ccc(Oc4ccccc4F)cc3)c3c(N)n[nH]c(=O)c23)C1 [Example 17, (S)-3-(1-acryloylpyrrolidin-3-yl)-7-amino-1-(4-(2-fluorophenoxy)phenyl)-1,5-dihydro-4H-pyrrolo[2,3-d]pyridazin-4-one] | 21 nM |
| C=CC(=O)N1CCC[C@@H](c2cn(-c3ccc(Oc4cccc(F)c4)cc3)c3c(N)n[nH]c(=O)c23)C1 [Example 30, (S)-3-(1-acryloylpiperidin-3-yl)-7-amino-1-(4-(3-fluorophenoxy)phenyl)-1,5-dihydro-4H-pyrrolo [2,3-d]pyridazin-4-one] | 129 nM |
| CC#CC(=O)N1CC[C@H](c2cn(-c3ccc(Oc4ccccc4F)cc3)c3c(N)n[nH]c(=O)c23)C1 [Example 76, (R)-7-amino-3-(1-(but-2-ynoyl)pyrrolidin-3-yl)-1-(4-(2-fluorophenoxy)phenyl)-1,5-dihydro-4H-pyrrolo[2,3-d]pyridazin-4-one] | 124 nM |
| CN1CC[C@@H]1/C=C/C(=O)N1CCC[C@@H](c2cn(-c3ccc(Oc4ccccc4)cc3)c3c(N)n[nH]c(=O)c23)C1 [Example 107, 7-amino-3-((S)-1-((E)-3-((R)-1-methylazetidin-2-yl)acryloyl)piperidin-3-yl)-1-(4-phenoxyphenyl)-1,5-dihydro-4H-pyrrolo[2,3-d]pyridazin-4-one] | 737 nM |
| C=CC(=O)N1CC[C@@H](c2nn(-c3ccc(Oc4cccc(F)c4F)cc3)c3c(N)n[nH]c(=O)c23)C1 [Example 44, (R)-3-(1-acryloylpyrrolidin-3-yl)-7-amino-1-(4-(2,3-difluorophenoxy)phenyl)-1,5-dihydro-4H-pyrazolo[3,4-d]pyridazin-4-one] | 113 nM |
| C=CC(=O)N1CC[C@@H](c2cn(-c3ccc(Oc4ccccc4)cc3)c3c(N)n[nH]c(=O)c23)C1 [Example 9, (S)-3-(1-acryloylpyrrolidin-3-yl)-7-amino-1-(4-phenoxyphenyl)-1,5-dihydro-4H-pyrrolo[2,3-d]pyridazin-4-one] | 32 nM |
